Measured values reported in PubChem BioAssay (NCI).
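Growth conditions: 96-well plates. Treatment: test compound, 48 hours, 5 concentrations. Analysis: linear interpolation between bracketing concentrations; unreached endpoints set to highest concentration. GI50: concentration for 50% inhibition of growth. TGI: concentration producing complete growth inhibition.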

Columns and labels:
Test in all cases: DTP human tumour cell line panel, 48 h
[1] = test system: IGROV1 ovarian
[2] = test system: UACC-62 melanoma
[3] = test system: K-562 leukemia
[4] = test system: MOLT-4 leukemia
[5] = test system: UACC-257 melanoma
[6] = test system: BT-549 breast
[7] = test system: HT29 colon
[8] = test system: A549 NSCLC
[9] = test system: NCI/ADR-RES ovarian
[10] = test system: ACHN renal
[11] = test system: NCI-H226 lung
[12] = test system: OVCAR-4 ovarian
[13] = test system: T-47D breast
[14] = test system: PC-3 prostate
[15] = test system: HCC-2998 colon
[16] = test system: SK-MEL-5 melanoma
[17] = test system: SF-295 CNS
[18] = test system: MDA-MB-231 breast
[19] = test system: 786-0 renal
[20] = test system: NCI-H460 lung
[21] = test system: SNB-19 CNS
[22] = test system: M14 melanoma
[23] = test system: NCI-H23 lung
[24] = test system: OVCAR-8 ovarian
[25] = test system: MCF7 breast
[26] = test system: SN12C renal
[27] = test system: MALME-3M melanoma
[28] = test system: U251 CNS
[29] = test system: KM12 colon
[30] = test system: TK-10 renal
[31] = test system: DU-145 prostate
[32] = test system: SW-620 colon
[33] = test system: LOX IMVI melanoma
[34] = test system: SK-MEL-28 melanoma
[35] = test system: SF-539 CNS
[36] = test system: EKVX NSCLC
[37] = test system: RXF 393 renal
[38] = test system: HCT-116 colon
[39] = test system: CAKI-1 renal
[40] = test system: HCT-15 colon
[41] = test system: MDA-MB-435
[42] = test system: OVCAR-3 ovarian
[43] = test system: CCRF-CEM leukemia
[44] = test system: HOP-62 NSCLC
[45] = test system: SK-OV-3 ovarian
[46] = test system: COLO 205 colon
[47] = test system: SNB-75 CNS
[48] = test system: HOP-92 NSCLC
[49] = test system: OVCAR-5 ovarian
[50] = test system: NCI-H522 lung
[51] = test system: A498 renal
[52] = test system: SK-MEL-2 melanoma
[53] = test system: SF-268 CNS

SMILES: COc1ccc(C2ONC3=NCCN32)cc1 (stereo unspecified)
- GI50 [1]: 73.2 µM
- TGI [1]: > 100 µM
- GI50 [2]: 67.3 µM
- TGI [2]: > 100 µM
- GI50 [3]: 38.3 µM
- TGI [3]: > 100 µM
- GI50 [4]: 37.1 µM
- TGI [4]: > 100 µM
- GI50 [5]: > 100 µM
- TGI [5]: > 100 µM
- GI50 [6]: 94.1 µM
- TGI [6]: > 100 µM
- GI50 [7]: 68.8 µM
- TGI [7]: > 100 µM
- GI50 [8]: 86.9 µM
- TGI [8]: > 100 µM
- GI50 [9]: 40.4 µM
- TGI [9]: > 100 µM
- GI50 [10]: 37.1 µM
- TGI [10]: > 100 µM
- GI50 [11]: 61.4 µM
- TGI [11]: > 100 µM
- GI50 [12]: > 100 µM
- TGI [12]: > 100 µM
- GI50 [13]: 99.4 µM
- TGI [13]: > 100 µM
- GI50 [14]: 55.4 µM
- TGI [14]: > 100 µM
- GI50 [15]: 49.7 µM
- TGI [15]: > 100 µM
- GI50 [16]: 53.3 µM
- TGI [16]: > 100 µM
- GI50 [17]: 93.4 µM
- TGI [17]: > 100 µM
- GI50 [18]: > 100 µM
- TGI [18]: > 100 µM
- GI50 [19]: 25.5 µM
- TGI [19]: > 100 µM
- GI50 [20]: 50.8 µM
- TGI [20]: > 100 µM
- GI50 [21]: > 100 µM
- TGI [21]: > 100 µM
- GI50 [22]: > 100 µM
- TGI [22]: > 100 µM
- GI50 [23]: > 100 µM
- TGI [23]: > 100 µM
- GI50 [24]: 67.7 µM
- TGI [24]: > 100 µM
- GI50 [25]: 61.1 µM
- TGI [25]: > 100 µM
- GI50 [26]: 52.8 µM
- TGI [26]: > 100 µM
- GI50 [27]: > 100 µM
- TGI [27]: > 100 µM
- GI50 [28]: 45 µM
- TGI [28]: > 100 µM
- GI50 [29]: 54.7 µM
- TGI [29]: > 100 µM
- GI50 [30]: > 100 µM
- TGI [30]: > 100 µM
- GI50 [31]: 70.3 µM
- TGI [31]: > 100 µM
- GI50 [32]: 46.8 µM
- TGI [32]: > 100 µM
- GI50 [33]: 14.4 µM
- TGI [33]: 47.1 µM
- GI50 [34]: > 100 µM
- TGI [34]: > 100 µM
- GI50 [35]: 84.8 µM
- TGI [35]: > 100 µM
- GI50 [36]: > 100 µM
- TGI [36]: > 100 µM
- GI50 [37]: > 100 µM
- TGI [37]: > 100 µM
- GI50 [38]: 40.4 µM
- TGI [38]: > 100 µM
- GI50 [39]: 48.2 µM
- TGI [39]: > 100 µM
- GI50 [40]: 29.2 µM
- TGI [40]: > 100 µM
- GI50 [41]: > 100 µM
- TGI [41]: > 100 µM
- GI50 [42]: 35.2 µM
- TGI [42]: > 100 µM
- GI50 [43]: 26.6 µM
- TGI [43]: 61.7 µM
- GI50 [44]: 84.9 µM
- TGI [44]: > 100 µM
- GI50 [45]: 40.7 µM
- TGI [45]: > 100 µM
- GI50 [46]: 45.9 µM
- TGI [46]: > 100 µM
- GI50 [47]: > 100 µM
- TGI [47]: > 100 µM
- GI50 [48]: 40.8 µM
- TGI [48]: > 100 µM
- GI50 [49]: > 100 µM
- TGI [49]: > 100 µM
- GI50 [50]: > 100 µM
- TGI [50]: > 100 µM
- GI50 [51]: > 100 µM
- TGI [51]: > 100 µM
- GI50 [52]: > 100 µM
- TGI [52]: > 100 µM
- GI50 [53]: 70.5 µM
- TGI [53]: > 100 µM
